Laboratory results taken from ChEMBL document CHEMBL1151000, “Novel synthetic rotenoids with blocked B/C ring systems” (Bioorg Med Chem Lett, 1992).

How the values were obtained:
[1] = The compound was evaluated for the inhibition of NADH dehydrogenase
[2] = The compound was evaluated for the insecticidal activity against housefly with cytochrome P450 oxidase inhibitor piperonyl butoxide; assay type: ADME; details: musca domestica
[3] = The compound was evaluated for the insecticidal activity against housefly without cytochrome P450 oxidase inhibitor piperonyl butoxide; details: musca domestica

SMILES	IC50 [1] [µM]	LD50 [2] [ug fly-1]	LD50 [3] [ug fly-1]
COc1cc2c(cc1OC)[C@]1(C)C(=O)c3ccc4c(c3O[C@@H]1CO2)C[C@H](C(C)C)O4	0.016	–	–
C=C(C)[C@H]1Cc2c(ccc3c2O[C@@H]2COc4cc(OC)c(OC)cc4[C@@]2(C)C3=O)O1.C=C(C)[C@H]1Cc2c(ccc3c2O[C@H]2COc4cc(OC)c(OC)cc4[C@]2(C)C3=O)O1	0.36	4	> 10
C=C(C)[C@H]1Cc2c(ccc3c2O[C@@H]2COc4cc(OC)c(OC)cc4[C@]2(C)C3=O)O1	0.017	0.2	2
C=C(C)[C@H]1Cc2c(ccc3c2OC24COc5cc(OC)c(OC)cc5C2(C4)C3=O)O1 (some centres not stated)	0.08	10	–
C=C(C)[C@H]1Cc2c(ccc3c2O[C@@H]2COc4cc(OC)c(OC)cc4[C@@H]2C3=O)O1 [ROTENONE]	0.0035	5	10
